In patent publication US20180264245A1, “Skin Care Applicator” (The Procter & Gamble Company, priority 2017, published 2018):
Where a SMILES comes first, the peptide text is derived from it.

What was measured:
[1] = Inositol in vitro skin penetration study (Franz Diffusion Cell assay); type: in vitro ADME, human; conditions: 0.5% inositol product, 24 hours; magnet with vibration vs. finger application or applicator incorporating a magnet; particularly in the epidermis; FIG. 6
Procedure: Skin penetration was measured using the Franz Diffusion Cell assay. Split-thickness (dermatomed) human cadaver skin was thawed under ambient conditions, cut into appropriately sized sections, and mounted in standard Franz-type diffusion cells (0.79 cm^2 surface area) maintained at about 37° C. The receptor compartments were filled with 5 mL phosphate buffered saline (PBS-pH 7.4) that included 1% polysorbate-20 and 0.02% sodium azide, and the skin was allowed to equilibrate for two hours. The cells were qualified upon ^3H20 flux through the mounted skin (150 μL of ^3H20 applied for five minutes and removed; receptor fluid was collected after one hour and analyzed using scintillation spectrometry). […] Where indicated, aliquots of the test products/formulations were spiked with the appropriate radioactive material (^3H-inositol, ^14C-niacinamide, ^14[…] or ^14C-retinyl propionate) with approximately 3 μCi per 300 mg product aliquot, mixed and assayed for total radioactivity in triplicate using Ultima Gold [Perkin-Elmer] liquid scintillation cocktail (LSC) and liquid scintillation counting. […] Active materials in receptor phase, filter paper wipes and solubilized skin samples were quantified using liquid scintillation. […]

[2] = Pal KTTKS in vivo skin penetration study (tape stripping); design: species or system human; key to significance of mean μg PalKTTKS/μg skin of Strip 6-10: “s” indicates significant difference vs. mean of passive (p < 0.1); conditions: for μg PalKTTKS/μg skin of Strip 6-10: cream; for Enhancement for strip 6-10: w Vibration vs. w/o Vibration
Procedure: An in vivo skin penetration study was conducted to establish the effect of using a skin care product of the present invention by applying a skin care composition comprising a peptide, in this case, Pal KTTKS, with an applicator comprising a magnetic array and a vibration source. The study used 10 active study sites (composition applied to target skin surface using an applicator containing a magnetic array and vibration source of the present invention) versus 10 control study sites (composition applied to target skin surface using an applicator with just a magnetic array). In this example, the level of Pal KTTKS present in the extract from each tape strip was measured using HPLC and the results normalized to the protein level measured on the tape strip.
This method provides a suitable means of measuring the amount of skin care active present in skin, and comparing active versus passive application of the skin care active. Two identical circular areas of 7.9 cm^2 were marked on the volar forearms of volunteers. A measured dose (approximately 9 mg) of the skin care formulation (ingredients shown in Table 1) was applied to the delineated areas using a screw actuated syringe. Application was carried out in each case using purpose made applicators having a metallic aluminium skin contact surface behind which was the magnetic array. The cream was spread evenly across the entire delineated region using the applicator in a sweeping motion with a fixed speed of approximately 3.5 cm/s to mimic normal finger application. The application period was 30 seconds during which time visual inspection was used to ensure even distribution and absorption of the formulation by skin. The application area was then left uncovered for a further 30 minutes to ensure complete absorption. The application area was then wiped thoroughly to remove any surface material, followed by carrying out tape stripping.
The Tape Stripping method can be carried out using commercial pre-cut 22.1 mm tape stripping adhesive discs (D-Squame, Cuderm Corporation or equivalent) with an adhesive area of 3.8 cm^2. A 22.1 mm diameter circular region was marked at the centre of the application area. A tape stripping adhesive disc was placed over the marked area and even pressure applied using a neoprene roller, rolled ten times over the surface. The adhesive disc was removed from the skin surface in a single pulling motion using manual tweezers. To ensure even removal of the stratum corneum, subsequent discs were removed in a north, south, east and west orientation. Each adhesive disc was non-destructively analysed for relative protein content using the SquameScan™ 850 instrument (Heiland Electronics Wetzlar Germany). The adhesive disc was then immediately placed into a glass vial containing extraction solvent in preparation for subsequent analysis. Solvent extractions are conducted on each tape strip using conventional extraction methods, which are well known to those of ordinary skill in the art, and measuring the amount of niacinamide present in the extract, for example, by high performance liquid chromatography (“HPLC”) and/or mass spectrometry.
The procedure was repeated for the remaining nine strips. An additional strip was obtained from outside the area of application of the skin care formulation to serve as a blank sample.

[3] = unit not given; cited from earlier work

OC1C(O)[C@H](O)[C@@H](O)C(O)[C@H]1O (stereo in doubt) [inositol, cyclohexane-1,2,3,4,5,6-hexol]
penetration into skin of inositol [1]: significant increase in penetration into skin

CCCCCCCCCCCCCCCC(=O)N[C@@H](CCCCN)C(=O)N[C@H](C(=O)N[C@H](C(=O)N[C@@H](CCCCN)C(=O)N[C@@H](CO)C(=O)O)[C@@H](C)O)[C@@H](C)O [PalKTTKS, palimitoyl-lysine-threonine-threonine-lysine-serine] (HELM PEPTIDE1{[CCCCCCCCCCCCCCCC(=O)[*:2]].K.T.T.K.S}$$$$V2.0; C-terminus assumed)
significance of mean μg PalKTTKS/μg skin of Strip 6-10 ([2]; Magnetic Micro array w Vibration, Mean, vs. mean of passive): s
μg PalKTTKS/μg skin of Strip 6-10 ([2]; Magnetic Micro array w Vibration, Mean of 10 panelists): 0.02522 μg PalKTTKS/μg skin
μg PalKTTKS/μg skin of Strip 6-10 ([2]; Magnetic Micro array w Vibration, Panelist1): 0.01152 μg PalKTTKS/μg skin
μg PalKTTKS/μg skin of Strip 6-10 ([2]; Magnetic Micro array w Vibration, Panelist2): 0.02161 μg PalKTTKS/μg skin
μg PalKTTKS/μg skin of Strip 6-10 ([2]; Magnetic Micro array w Vibration, Panelist3): 0.01304 μg PalKTTKS/μg skin
μg PalKTTKS/μg skin of Strip 6-10 ([2]; Magnetic Micro array w Vibration, Panelist4): 0.0258 μg PalKTTKS/μg skin
μg PalKTTKS/μg skin of Strip 6-10 ([2]; Magnetic Micro array w Vibration, Panelist5): 0.0568 μg PalKTTKS/μg skin
μg PalKTTKS/μg skin of Strip 6-10 ([2]; Magnetic Micro array w Vibration, Panelist6): 0.04369 μg PalKTTKS/μg skin
μg PalKTTKS/μg skin of Strip 6-10 ([2]; Magnetic Micro array w Vibration, Panelist7): 0.02184 μg PalKTTKS/μg skin
μg PalKTTKS/μg skin of Strip 6-10 ([2]; Magnetic Micro array w Vibration, Panelist8): 0.02081 μg PalKTTKS/μg skin
μg PalKTTKS/μg skin of Strip 6-10 ([2]; Magnetic Micro array w Vibration, Panelist9): 0.01648 μg PalKTTKS/μg skin
μg PalKTTKS/μg skin of Strip 6-10 ([2]; Magnetic Micro array w Vibration, Panelist10): 0.02061 μg PalKTTKS/μg skin
μg PalKTTKS/μg skin of Strip 6-10 ([2]; Magnetic Micro array w/o Vibration, Mean of 10 panelists): 0.02166 μg PalKTTKS/μg skin
μg PalKTTKS/μg skin of Strip 6-10 ([2]; Magnetic Micro array w/o Vibration, Panelist1): 0.0107 μg PalKTTKS/μg skin
μg PalKTTKS/μg skin of Strip 6-10 ([2]; Magnetic Micro array w/o Vibration, Panelist2): 0.01869 μg PalKTTKS/μg skin
μg PalKTTKS/μg skin of Strip 6-10 ([2]; Magnetic Micro array w/o Vibration, Panelist3): 0.00663 μg PalKTTKS/μg skin
μg PalKTTKS/μg skin of Strip 6-10 ([2]; Magnetic Micro array w/o Vibration, Panelist4): 0.01973 μg PalKTTKS/μg skin
μg PalKTTKS/μg skin of Strip 6-10 ([2]; Magnetic Micro array w/o Vibration, Panelist5): 0.05444 μg PalKTTKS/μg skin
μg PalKTTKS/μg skin of Strip 6-10 ([2]; Magnetic Micro array w/o Vibration, Panelist6): 0.03195 μg PalKTTKS/μg skin
μg PalKTTKS/μg skin of Strip 6-10 ([2]; Magnetic Micro array w/o Vibration, Panelist7): 0.02902 μg PalKTTKS/μg skin
μg PalKTTKS/μg skin of Strip 6-10 ([2]; Magnetic Micro array w/o Vibration, Panelist8): 0.01924 μg PalKTTKS/μg skin
μg PalKTTKS/μg skin of Strip 6-10 ([2]; Magnetic Micro array w/o Vibration, Panelist9): 0.00638 μg PalKTTKS/μg skin
μg PalKTTKS/μg skin of Strip 6-10 ([2]; Magnetic Micro array w/o Vibration, Panelist10): 0.01984 μg PalKTTKS/μg skin
penetration of the active into skin ([2]; applicator combining magnetic array with vibration source vs. control applicator with just a magnetic array): penetration of the active is enhanced
Enhancement for strip 6-10 ([2]; Mean): 1.337
Enhancement for strip 6-10 ([2]; Panelist1): 1.077
Enhancement for strip 6-10 ([2]; Panelist2): 1.156
Enhancement for strip 6-10 ([2]; Panelist3): 1.966
Enhancement for strip 6-10 ([2]; Panelist4): 1.307
Enhancement for strip 6-10 ([2]; Panelist5): 1.043
Enhancement for strip 6-10 ([2]; Panelist6): 1.367
Enhancement for strip 6-10 ([2]; Panelist7): 0.7528
Enhancement for strip 6-10 ([2]; Panelist8): 1.081
Enhancement for strip 6-10 ([2]; Panelist9): 2.582
Enhancement for strip 6-10 ([2]; Panelist10): 1.039
diamagnetic susceptibility [3]: approximately −519
